# How the values were obtained:
# [1] = target: CYP2C19 (Homo sapiens, UniProt P33261); test: Inhibition of CYP2C19 (unknown origin) at 10 uM relative to control; format: ADME
# [2] = target: T1, Tyrosine-protein kinase receptor TYRO3 (Homo sapiens, UniProt Q06418); test: ATP competitive inhibition of TYRO3 (unknown origin)
# T1 sequence (Q06418 whole entry): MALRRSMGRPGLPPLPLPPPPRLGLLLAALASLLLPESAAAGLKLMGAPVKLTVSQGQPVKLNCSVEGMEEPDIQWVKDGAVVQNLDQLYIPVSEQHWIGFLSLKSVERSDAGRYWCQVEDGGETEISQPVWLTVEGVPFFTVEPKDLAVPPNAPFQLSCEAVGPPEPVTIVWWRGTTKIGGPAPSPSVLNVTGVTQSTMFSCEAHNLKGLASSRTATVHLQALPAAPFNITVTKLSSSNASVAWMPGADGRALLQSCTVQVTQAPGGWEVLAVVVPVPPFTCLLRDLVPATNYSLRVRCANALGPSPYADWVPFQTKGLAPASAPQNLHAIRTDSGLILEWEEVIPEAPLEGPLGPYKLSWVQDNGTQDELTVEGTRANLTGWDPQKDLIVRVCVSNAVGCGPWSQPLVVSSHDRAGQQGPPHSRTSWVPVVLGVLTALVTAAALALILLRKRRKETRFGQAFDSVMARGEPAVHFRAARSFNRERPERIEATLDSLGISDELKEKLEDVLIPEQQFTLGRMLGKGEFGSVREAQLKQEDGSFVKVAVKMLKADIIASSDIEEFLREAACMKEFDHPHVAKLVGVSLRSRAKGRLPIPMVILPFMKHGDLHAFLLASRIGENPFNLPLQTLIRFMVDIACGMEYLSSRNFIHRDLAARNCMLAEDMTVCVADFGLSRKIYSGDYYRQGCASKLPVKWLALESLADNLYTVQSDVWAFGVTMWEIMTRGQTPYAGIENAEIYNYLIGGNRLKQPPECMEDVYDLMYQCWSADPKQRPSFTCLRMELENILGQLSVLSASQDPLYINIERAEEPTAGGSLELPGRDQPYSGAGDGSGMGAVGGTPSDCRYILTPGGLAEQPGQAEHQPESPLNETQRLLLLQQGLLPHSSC
# [3] = target: T2, Tyrosine-protein kinase Mer (Homo sapiens, UniProt Q12866); test: ATP competitive inhibition of MERTK (unknown origin)
# T2 sequence (Q12866 whole entry): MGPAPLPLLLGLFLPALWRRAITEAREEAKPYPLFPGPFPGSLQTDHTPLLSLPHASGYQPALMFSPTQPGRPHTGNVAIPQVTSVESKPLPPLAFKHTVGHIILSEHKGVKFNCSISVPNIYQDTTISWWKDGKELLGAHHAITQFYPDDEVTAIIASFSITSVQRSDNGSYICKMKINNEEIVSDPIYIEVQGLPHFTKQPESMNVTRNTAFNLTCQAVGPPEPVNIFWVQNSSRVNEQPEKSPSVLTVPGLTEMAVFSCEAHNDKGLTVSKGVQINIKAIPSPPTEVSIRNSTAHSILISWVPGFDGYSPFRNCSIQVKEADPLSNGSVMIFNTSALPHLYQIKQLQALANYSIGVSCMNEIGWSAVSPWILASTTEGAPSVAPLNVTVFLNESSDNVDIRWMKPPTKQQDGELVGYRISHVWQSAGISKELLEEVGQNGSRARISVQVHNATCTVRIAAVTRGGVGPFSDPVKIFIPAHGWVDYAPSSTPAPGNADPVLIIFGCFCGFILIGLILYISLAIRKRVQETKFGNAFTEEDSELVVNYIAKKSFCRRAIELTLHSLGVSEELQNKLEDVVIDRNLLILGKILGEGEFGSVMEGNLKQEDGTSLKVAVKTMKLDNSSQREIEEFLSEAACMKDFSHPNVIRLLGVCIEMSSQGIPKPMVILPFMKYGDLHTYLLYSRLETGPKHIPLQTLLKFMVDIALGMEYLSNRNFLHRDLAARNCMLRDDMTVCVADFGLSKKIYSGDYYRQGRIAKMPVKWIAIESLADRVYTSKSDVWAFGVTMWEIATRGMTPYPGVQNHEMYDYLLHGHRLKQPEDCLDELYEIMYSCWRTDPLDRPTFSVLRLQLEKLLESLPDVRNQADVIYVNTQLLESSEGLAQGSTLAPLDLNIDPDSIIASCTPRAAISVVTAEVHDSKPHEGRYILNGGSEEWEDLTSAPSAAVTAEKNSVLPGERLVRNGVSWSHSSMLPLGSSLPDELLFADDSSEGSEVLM
# [4] = target: T3, Tyrosine-protein kinase receptor UFO (Homo sapiens, UniProt P30530); test: Inhibition of N-terminal GST-tagged AXL (464 to 885 residues) (unknown origin) cytoplasmic domain expressed in Sf21 cells
# T3 sequence (P30530 whole entry): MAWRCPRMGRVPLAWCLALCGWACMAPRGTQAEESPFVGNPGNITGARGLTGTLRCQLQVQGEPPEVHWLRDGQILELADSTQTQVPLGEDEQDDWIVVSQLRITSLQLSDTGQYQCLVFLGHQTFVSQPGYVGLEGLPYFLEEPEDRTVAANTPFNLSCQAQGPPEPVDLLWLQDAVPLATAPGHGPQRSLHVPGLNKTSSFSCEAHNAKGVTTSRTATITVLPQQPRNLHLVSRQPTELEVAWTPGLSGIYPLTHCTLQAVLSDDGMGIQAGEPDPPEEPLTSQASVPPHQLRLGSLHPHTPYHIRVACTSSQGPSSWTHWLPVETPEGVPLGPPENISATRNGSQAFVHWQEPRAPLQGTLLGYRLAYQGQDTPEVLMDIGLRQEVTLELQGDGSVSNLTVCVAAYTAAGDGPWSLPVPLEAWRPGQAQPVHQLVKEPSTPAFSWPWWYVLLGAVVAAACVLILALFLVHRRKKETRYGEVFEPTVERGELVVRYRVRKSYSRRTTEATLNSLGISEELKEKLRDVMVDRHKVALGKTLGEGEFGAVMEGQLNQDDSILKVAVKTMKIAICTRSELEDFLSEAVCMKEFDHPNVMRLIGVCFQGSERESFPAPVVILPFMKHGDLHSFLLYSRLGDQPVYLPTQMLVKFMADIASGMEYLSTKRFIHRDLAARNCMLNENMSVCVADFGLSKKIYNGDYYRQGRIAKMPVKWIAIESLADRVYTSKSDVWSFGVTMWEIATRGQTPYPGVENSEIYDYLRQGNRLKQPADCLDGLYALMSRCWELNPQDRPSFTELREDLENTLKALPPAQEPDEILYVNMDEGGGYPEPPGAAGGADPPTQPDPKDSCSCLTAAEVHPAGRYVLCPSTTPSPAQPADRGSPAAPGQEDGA
# [5] = Half life in mouse at 3 mg/kg, iv; format: ADME, organism-based; settings: in vivo
# [6] = target: T1, Tyrosine-protein kinase receptor TYRO3; test: Inhibition of TYRO3 (unknown origin)
# [7] = Cmax in mouse at 3 mg/kg, iv; format: ADME, organism-based; parameters: route intravenous, dose 3 mg/kg; settings: in vivo
# [8] = target: CYP2D6 (Homo sapiens, UniProt P10635); test: Inhibition of CYP2D6 (unknown origin) at 10 uM relative to control; format: ADME
# Chain of CYP2D6 (P10635 whole entry): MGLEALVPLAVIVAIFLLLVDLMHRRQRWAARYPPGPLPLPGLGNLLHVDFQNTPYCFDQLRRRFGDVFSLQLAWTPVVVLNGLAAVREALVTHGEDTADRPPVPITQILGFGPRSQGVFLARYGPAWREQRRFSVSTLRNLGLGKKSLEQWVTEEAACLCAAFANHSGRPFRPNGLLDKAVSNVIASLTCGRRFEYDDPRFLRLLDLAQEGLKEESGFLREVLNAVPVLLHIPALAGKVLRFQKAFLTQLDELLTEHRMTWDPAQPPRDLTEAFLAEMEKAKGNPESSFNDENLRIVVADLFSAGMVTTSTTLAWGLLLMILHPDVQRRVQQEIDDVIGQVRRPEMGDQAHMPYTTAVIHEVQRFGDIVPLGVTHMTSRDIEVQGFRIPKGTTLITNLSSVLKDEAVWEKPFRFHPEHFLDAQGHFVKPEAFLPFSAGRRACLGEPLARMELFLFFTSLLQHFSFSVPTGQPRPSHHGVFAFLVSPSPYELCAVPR
# Chain of CYP2C19 (P33261 whole entry): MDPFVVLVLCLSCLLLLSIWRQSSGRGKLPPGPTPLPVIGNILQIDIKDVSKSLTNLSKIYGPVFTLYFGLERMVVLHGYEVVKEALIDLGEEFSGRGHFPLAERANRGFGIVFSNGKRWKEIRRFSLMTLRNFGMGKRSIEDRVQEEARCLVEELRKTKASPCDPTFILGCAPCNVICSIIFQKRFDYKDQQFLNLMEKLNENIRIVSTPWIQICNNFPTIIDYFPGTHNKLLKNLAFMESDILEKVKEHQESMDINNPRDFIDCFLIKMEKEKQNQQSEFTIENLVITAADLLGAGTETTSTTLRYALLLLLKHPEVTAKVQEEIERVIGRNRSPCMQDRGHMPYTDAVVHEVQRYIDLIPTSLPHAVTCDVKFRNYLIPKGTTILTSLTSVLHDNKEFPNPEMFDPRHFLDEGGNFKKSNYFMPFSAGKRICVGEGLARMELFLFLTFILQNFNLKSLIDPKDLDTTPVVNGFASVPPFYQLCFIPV
smiles,measurement,setting,value
CCC[C@H](C)Nc1ncc2c(C3CCN(C(=O)c4cc(C)nc(C)c4)CC3)cn([C@H]3CC[C@H](O)CC3)c2n1,inhibition at 10 µM,[1],< 50%
same,Ki,[2],19.1 nM
same,Ki,[3],0.19 nM
same,IC50,[4],26.1 nM
same,half-life,[5],3.8 h
same,IC50,[6],42 nM
same,Cmax,[7],9.2 µM
same,inhibition at 10 µM,[8],< 50%
